Measured values published in US7906477B2 (Genspera, Inc., priority 2002, dated 2011).
Square brackets hold non-standard residues; d marks the D form. Ends that are not written are not given here. Peptide text beside a SMILES is read from it. Tyr(3-NO2) = N[C@@H](Cc1ccc(O)c([N+](=O)[O-])c1)C(=O)O; Abz = aminobenzoic acid; 2Abz = Nc1ccccc1C(=O)O; Dap = NC[C@H](N)C(=O)O

Legend:
[1] = plasma stability in 50% human plasma; format: in vitro ADME; conditions: for remaining at 3 h, 500 μM: HPLC, read-out: parent peptide remaining after 3 hours; for degradation after overnight incubation (in words): human plasma
Method: FIG. 5 depicts the stability of Ac-GKAFRR-L12ADT (SEQ ID NO:41) in human plasma after a 24 hour incubation, as determined by HPLC analysis. Ac-GKAFRR-L12ADT (SEQ ID NO:41) was incubated in 50% human plasma for 24 hours at room temperature. Peak 1 represents an unidentified plasma contaminant that was also present in control plasma. Peaks 2 and 3 both represent Ac-GKAFRR-L12ADT (SEQ ID NO:41) as confirmed by MALDI-TOF mass spectrometric analysis.
(§1) Mouse plasma was obtained from cardiac puncture of anesthetized mice prior to euthanization by CO2 overdose according to protocols approved by the Johns Hopkins Animal Care and Use Committee. Human plasma was obtained from discarded, pooled, and unlabeled clinical samples. Plasma was diluted to 50% in Tris buffer (50 mM Tris-HCl, 100 mM NaCl, pH 7.8). To this, test peptides/prodrugs were added to 250 or 500 μM final concentration. After the incubation period, one volume (200 μl) of acetonitrile was added to precipitate the protein fraction and the tube was centrifuged at 14,000 for 2 min. The supernatant was analyzed by C18-HPLC and the collected peaks were analyzed by MALDI-TOF as described above.
(§2) Arginine-containing peptides are potential substrates for the wide variety of other trypsin-like proteases that are present in the blood and may have residual activity in the blood. The plasma stability of an hK2 peptide substrate may therefore be limited and this would have significant consequences related to the development of an hK2 activated prodrug. Therefore, two fluorescence quenched hK2 peptide substrates peptides were incubated in 50% mouse or human plasma (diluted in PBS buffer) to determine stability using a plate-reader. As observed with arginine containing peptides from the SPOT analysis above, none of the arginine-containing, fluorescence quenched hK2peptide substrates were stable in human or mouse plasma. Fluorescence-quenched Y′GKAFRR-Dap-GK′ (SEQ ID NO:42) and Y′GKAFRRLGK′ (SEQ ID NO:21) (500 μM each) were hydrolyzed when incubated in 50% mouse or human plasma (FIG. 7). Mouse plasma degraded the peptides faster than human plasma (FIG. 7). […] In human plasma, more peptide remained after 3 hours (˜25%). […] The proteolytic activity from plasma was never affected by repeated freeze-thaw cycles or by storage of the mouse plasma alone at room temperature for several days.
To determine the plasma stability for the hK2 prodrug, the prodrug was incubated in 50% fresh heparinized (1%) plasma for 24 hours at room temperature, precipitated the proteins by adding one volume of 1% TFA in acetonitrile and analyzed the supernatant by HPLC. Unexpectedly, BPLC analysis after 24 hrs incubation in plasma yielded only a single peak corresponding to the hK2 prodrug (FIG. 5). MALDI-TOF MS of the isolated single peak confirmed the stability of the molecule.

[2] = plasma stability in 50% mouse plasma; format: in vitro ADME; conditions: 500 μM; for parent peptide remaining after 3 hours (in words): HPLC
Method: as §1, §2

[3] = molecular target: T1, hK2 (Homo sapiens, UniProt P20151); test: hK2 mediated hydrolysis of peptide substrates in solution (fluorescence); format: biochemical; conditions: for digestion by hK2 of arginine-free peptides (in words): in solution, even after prolonged incubation; for hK2 mediated hydrolysis (in words, FIG. 2): substrates 250 μM, 8 μg/ml hK2 in PBS buffer
T1 construct: made in house
Method: FIG. 2 depicts a graph of hK2 mediated hydrolysis of peptide substrates identified through the screening of a random peptide library [Y′GKARAF-Dap-FK′ (SEQ ID NO:36), Y′GKAKPR-Dap-FK′ (SEQ ID NO:37), Y′GKAFRR-Dap-FK′ (SEQ ID NO:38), Y′GKAMRQ-Dap-FK′ (SEQ ID NO:39) and Y′GSKGHFKL-Dap-F-K′ (SEQ ID NO:40)]. Substrates (250 μM) were incubated with 8 μg/ml hK2 in PBS buffer. Hydrolysis of peptide results in increased fluorescence, as measured using a 96 well fluorometer. […] To determine 100% digestion, trypsin was added (50 mg/ml) and samples were incubated to 37° C. for 30 min and the fluorescence was determined. The percentage digested is determined by dividing fluorescence units of sample by fluorescence units of control fully digested peptide.
A mutant form of hK2 was utilized in which the amino acids −5 to −1 of the propeptide sequence of hK2 (i.e. Leu-Ile-Gln-Ser-Arg; SEQ ID NO:15) were mutated to Asp-Asp-Asp-Asp-Lys (SEQ ID NO:16) to generate a pro-hK2 protein that can be activated to functional hK2 by […] (Lovgren, J. et al. (1999) Eur. J. Biochem. 266:1050-1055). Compared with wild-type hK2, expression of the propeptide hK2 mutant increases the expression levels up to 15-40-fold (Lovgren, J. et al. (1999) Eur. J. Biochem. 266:1050-1055). The generation and characteristics of this mutant hK2 have been previously described (Lovgren, J. et al. (1999) Eur. J. Biochem. 266:1050-1055).
For validation of the Edman results, peptides were re-synthesized using a Rainin PS3 peptide synthesizer with HBTU/NMM activation. Peptides were synthesized on PEGA resin for on-bead analysis or on Fmoc-Lys(Mtt)-Wang resin for solution assays. The Fmoc-Lys(Mtt)-Wang resin was first deprotected with 2% TFA in DCM (3×2 min). The ε-amine of lysine was then acylated with Boc-Abz. Deprotection/cleavage was performed in TFA/TIS/water (95:2.5:2.5 v/v) for 2-3 hours. Peptides were ether precipitated, dried and purified by C18-HPLC using a linear gradient of acetonitrile (0.1% TFA), lyophilized and dissolved in DMSO. Peptide identities were confirmed by analysis on a Perseptive Voyager DE-STR MALDI-TOF using dihydroxy benzoic acid as a matrix. Fluorescence measurements were performed on a Fluoroskan II 96-well plate reader (ICN biomedicals, Costa Mesa, Calif.; excitation, 355 nm; emission, 460 nm). Kinetic parameters were calculated as described earlier (Denmeade, S. R. et al. (1997) Cancer Res. 57:4924-4930).
The combinatorial screen identified seven arginine-containing peptides. Four of these were re-synthesized (X1-X2-X3=RAF, KPR, FRR and MRQ respectively). Three other lead sequences were not re-synthesized (X1-X2-X3=IQR, FRK and VRQ respectively). All four arginine-containing sequences that were re-synthesized reproduced fluorescence when these peptides were digested on-bead with hK2. For a more quantitative analysis, the fluorescence-quenched peptides were cleaved off the resin and purified by HPLC. The rate of hydrolysis was quantified by measuring increase in fluorescence (Figure). […] In less than five minutes, more than 50% of the peptide was digested (500 μM peptide, 4 μg/ml hK2). For the other peptides, digestion of the same amount of peptide took 19-29 minutes. […] In subsequent studies, hydrolysis rates using the Y′GKAFRR-Dap-F-K′ (SEQ ID NO:38) peptide were analyzed by Lineweaver-Burke reciprocal plots.

T1 sequence (P20151 25-261): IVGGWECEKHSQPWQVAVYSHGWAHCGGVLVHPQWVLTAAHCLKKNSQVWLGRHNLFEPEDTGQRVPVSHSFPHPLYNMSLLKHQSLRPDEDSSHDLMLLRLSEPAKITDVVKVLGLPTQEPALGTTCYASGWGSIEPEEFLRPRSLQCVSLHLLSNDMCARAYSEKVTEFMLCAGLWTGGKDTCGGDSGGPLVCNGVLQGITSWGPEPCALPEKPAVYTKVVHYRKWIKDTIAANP

Which remaining at 3 h, 500 μM ([1]; 50% human plasma, 500 μM) does the source give for C[C@H](NC(=O)[C@H](CCCCN)NC(=O)CNC(=O)[C@@H](N)Cc1ccc(O)c([N+](=O)[O-])c1)C(=O)N[C@@H](Cc1ccccc1)C(=O)N[C@@H](CCCNC(=N)N)C(=O)N[C@@H](CCCNC(=N)N)C(=O)N[C@@H](CN)C(=O)NCC(=O)N[C@@H](CCCCNC(=O)c1ccccc1N)C(=O)O [Y′GKAFRR-Dap-GK′] (H-[Tyr(3-NO2)]GKAFRR[Dap]GK(2Abz)-OH; N-terminus assumed) here?
Its remaining at 3 h, 500 μM is about 25%.

What about the “degradation after overnight incubation (in words)” value [1] of the same compound?
Its value is “complete degradation”.

And the “parent peptide remaining after 3 hours (in words)” value [2]?
The value was “almost no parent peptide remained”.

For “Y′GSKGHFHL-Dap-K′: arginine-free fluorescence-quenched peptide from SPOT analysis sequence ([Tyr(3-NO2)]GSKGHFHL[Dap]K(Abz))”, which “digestion by hK2 of arginine-free peptides (in words)” value [3] is on record?
The value was “none of these three arginine free peptides were digested by hK2”.

For “Y′GSKGHFKL-Dap-F-K′: fluorescence-quenched substrate without arginine ([Tyr(3-NO2)]GSKGHFKL[Dap]FK(Abz))”, which “hK2 mediated hydrolysis (in words, FIG. 2)” value [3] is on record?
The value was “did not show any hydrolysis”.

For “Y′GSKGHFKL-Dap-K′: arginine-free fluorescence-quenched peptide, P1 lysine ([Tyr(3-NO2)]GSKGHFKL[Dap]K(Abz))”, which “digestion by hK2 of arginine-free peptides (in words)” value [3] is on record?
Its value is “none of these three arginine free peptides were digested by hK2”.

Which results are given for C[C@H](NC(=O)[C@H](CCCCN)NC(=O)CNC(=O)[C@@H](N)Cc1ccc(O)c([N+](=O)[O-])c1)C(=O)N[C@@H](Cc1ccccc1)C(=O)N[C@@H](CCCNC(=N)N)C(=O)N[C@@H](CCCNC(=N)N)C(=O)N[C@@H](CN)C(=O)N[C@@H](Cc1ccccc1)C(=O)N[C@@H](CCCCNC(=O)c1ccccc1N)C(=O)O [Y′GKAFRR-Dap-F-K′] (H-[Tyr(3-NO2)]GKAFRR[Dap]FK(2Abz)-OH; N-terminus assumed)?
maximum digestion ([3]; 500 μM peptide, 4 μg/ml hK2): 70-75%; time in which more than 50% of the peptide was digested ([3]; 500 μM peptide, 4 μg/ml hK2): less than five; time to reach maximum digestion ([3]; 500 μM peptide, 4 μg/ml hK2): less than 15 minutes; hK2 mediated hydrolysis (in words, FIG. 2) [3]: by far exceeded all other substrates

Which “digestion by hK2 of arginine-free peptides (in words)” value [3] does the source give for “Y′GSKGPFKL-Dap-K′: arginine-free fluorescence-quenched peptide derivative ([Tyr(3-NO2)]GSKGPFKL[Dap]K(Abz))” here?
The value was “none of these three arginine free peptides were digested by hK2”.

What does the source list for CC(C)C[C@H](NC(=O)[C@H](CCCNC(=N)N)NC(=O)[C@H](CCCNC(=N)N)NC(=O)[C@H](Cc1ccccc1)NC(=O)[C@H](C)NC(=O)[C@H](CCCCN)NC(=O)CNC(=O)[C@@H](N)Cc1ccc(O)c([N+](=O)[O-])c1)C(=O)NCC(=O)N[C@@H](CCCCNC(=O)c1ccccc1N)C(=O)O [Y′GKAFRRLGK′] (H-[Tyr(3-NO2)]GKAFRRLGK(2Abz)-OH)?
hK2 hydrolysis rate after substitution of Dap-F with Leu-Gly (in words) ([3]; compare FIG. 2 with FIG. 8): only a modest decrease in hydrolysis rate; relative stability of the peptides (in words) ([1]; 50% human plasma, 500 μM): less stable than the Dap containing peptide; remaining at 3 h, 500 μM ([1]; 50% human plasma, 500 μM): ~25%; degradation after overnight incubation (in words) [1]: complete degradation; relative stability of the peptides (in words) [2]: less stable than the Dap containing peptide; parent peptide remaining after 3 hours (in words) [2]: almost no parent peptide remained
